Patent publication US8148391B2 (Cephalon, Inc., priority 2006, dated 2012)
Where two headings read alike, the source gives them in different places. Values belong to the compound of their own block, whether it stands above or below them.

Legend:
[1] = molecular target: T1, c-Met (cytoplasmic domain) (Homo sapiens, UniProt P08581); assay: c-Met Kinase Assay (same methods as for ALK, with modifications); assay type: biochemical
T1 construct: 10 ng/mL c-Met (cytoplasmic domain, Invitrogen Corporation #PV3143); purchased Invitrogen Corporation PV3143
Method in brief: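 IC50 values were fitted by variable-slope sigmoidal regression of percent inhibition against log compound concentration. Phosphorylation was read with Eu-N1 PT66 antibody after a 15 min, 37 °C reaction. The reaction was initiated with 10 ng/mL c-Met cytoplasmic domain on wells coated with 10 μg/mL PLC-γ in TBS.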

[2] = molecular target: T2, baculovirus-expressed ALK (Homo sapiens, UniProt Q9UM73); assay: ALK Kinase Assay (ELISA-type, time-resolved fluorescence); assay type: biochemical
T2 construct: host or cells: baculovirus expression system
Method in brief: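 Wells were coated with phospholipase C-γ at 10 μg/mL in Tris-buffered saline. Adding 30 ng/ml enzyme started the reaction, which ran at 37° C for 15 minutes before Eu-N1 PT66 antibody detection. Percent inhibition versus log10 concentration gave IC50 by variable-slope fit.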

[3] = 1 μM ATP (Km level), 10 ng/mL c-Met, read-out: cMet Activity (c-Met kinase inhibition, IC50 class)
[4] = 1 μM ATP (Km level), 30 ng/ml ALK, 37° C., 15 minutes, read-out: ALK Activity (ALK kinase inhibition, IC50 class)
[5] = c-Met kinase inhibition, 1 μM ATP (Km level), read-out: cMet Activity
[6] = ALK kinase inhibition, 1 μM ATP (Km level), read-out: ALK Activity
[7] = c-Met kinase inhibition, 1 μM ATP, read-out: cMet Activity
[8] = ALK kinase inhibition, 1 μM ATP, read-out: ALK Activity
[9] = 1 μM ATP (Km level), read-out: cMet Activity (c-Met Kinase Inhibition, IC50)
[10] = 1 μM ATP (Km level), read-out: ALK Activity (ALK Kinase Inhibition, IC50)

T2 sequence (Q9UM73 19-1620): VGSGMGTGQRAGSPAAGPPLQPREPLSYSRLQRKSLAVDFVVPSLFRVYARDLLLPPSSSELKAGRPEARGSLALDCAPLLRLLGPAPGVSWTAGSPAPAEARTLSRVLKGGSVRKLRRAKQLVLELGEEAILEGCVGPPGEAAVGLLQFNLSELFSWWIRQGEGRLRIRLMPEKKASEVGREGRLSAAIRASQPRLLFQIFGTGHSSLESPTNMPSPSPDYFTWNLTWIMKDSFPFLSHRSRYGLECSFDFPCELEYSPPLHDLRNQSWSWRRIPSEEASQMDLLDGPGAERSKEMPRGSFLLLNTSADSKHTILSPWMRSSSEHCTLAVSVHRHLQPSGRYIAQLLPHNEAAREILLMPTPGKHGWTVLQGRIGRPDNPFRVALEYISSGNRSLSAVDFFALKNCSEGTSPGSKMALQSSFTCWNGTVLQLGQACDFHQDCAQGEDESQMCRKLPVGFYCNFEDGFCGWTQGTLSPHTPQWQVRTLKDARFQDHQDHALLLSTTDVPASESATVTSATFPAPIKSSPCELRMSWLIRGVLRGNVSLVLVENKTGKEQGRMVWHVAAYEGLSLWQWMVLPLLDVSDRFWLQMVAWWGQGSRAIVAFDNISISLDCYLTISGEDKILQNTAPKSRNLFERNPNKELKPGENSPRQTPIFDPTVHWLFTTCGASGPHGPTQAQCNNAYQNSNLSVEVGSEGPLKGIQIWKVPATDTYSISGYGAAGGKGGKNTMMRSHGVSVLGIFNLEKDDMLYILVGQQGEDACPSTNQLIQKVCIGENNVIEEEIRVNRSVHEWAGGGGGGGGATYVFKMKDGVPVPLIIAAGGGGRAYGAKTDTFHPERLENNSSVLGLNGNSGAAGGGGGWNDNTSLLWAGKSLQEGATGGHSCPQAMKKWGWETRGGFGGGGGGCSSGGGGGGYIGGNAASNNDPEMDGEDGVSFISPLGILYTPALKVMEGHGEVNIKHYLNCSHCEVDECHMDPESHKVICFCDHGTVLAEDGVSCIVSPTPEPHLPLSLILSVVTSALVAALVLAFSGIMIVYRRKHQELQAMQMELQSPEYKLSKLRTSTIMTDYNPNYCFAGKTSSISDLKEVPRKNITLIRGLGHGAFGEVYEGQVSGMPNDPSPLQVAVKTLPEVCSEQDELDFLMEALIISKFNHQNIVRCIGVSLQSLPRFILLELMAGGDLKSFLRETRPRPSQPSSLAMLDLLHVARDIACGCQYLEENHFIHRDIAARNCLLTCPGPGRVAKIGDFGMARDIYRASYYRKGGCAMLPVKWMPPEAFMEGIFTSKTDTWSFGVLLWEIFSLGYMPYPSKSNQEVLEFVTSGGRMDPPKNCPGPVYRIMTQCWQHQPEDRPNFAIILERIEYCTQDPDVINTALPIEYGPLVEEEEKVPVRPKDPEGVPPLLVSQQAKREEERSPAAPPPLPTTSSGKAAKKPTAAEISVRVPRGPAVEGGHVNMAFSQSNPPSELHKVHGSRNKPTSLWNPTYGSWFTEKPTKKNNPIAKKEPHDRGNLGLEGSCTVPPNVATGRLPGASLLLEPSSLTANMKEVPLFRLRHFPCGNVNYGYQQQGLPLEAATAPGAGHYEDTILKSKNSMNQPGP
T1 sequence (P08581 956-1390 limits assumed): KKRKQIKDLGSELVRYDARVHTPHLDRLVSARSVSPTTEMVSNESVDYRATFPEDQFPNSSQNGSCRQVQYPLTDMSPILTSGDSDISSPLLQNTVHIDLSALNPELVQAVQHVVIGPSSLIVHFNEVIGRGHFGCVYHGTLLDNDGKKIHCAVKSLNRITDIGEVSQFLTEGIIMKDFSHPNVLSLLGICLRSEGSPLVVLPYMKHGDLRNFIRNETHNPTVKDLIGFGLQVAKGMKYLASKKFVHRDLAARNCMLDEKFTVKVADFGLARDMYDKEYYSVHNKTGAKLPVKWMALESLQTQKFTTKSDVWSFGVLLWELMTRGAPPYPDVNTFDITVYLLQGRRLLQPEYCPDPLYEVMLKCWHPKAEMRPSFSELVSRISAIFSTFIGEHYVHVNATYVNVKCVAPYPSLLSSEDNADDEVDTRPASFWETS

SMILES: COCCN1CCc2cc(Nc3ncc(Cl)c(Nc4ccc(C(N)=O)cc4OC)n3)c(OC)cc2CC1 [Example 1156, 4-{5-Chloro-2-[8-methoxy-3-(2-methoxy-ethyl)-2,3,4,5-tetrahydro-1H-benzo[d]azepin-7-ylamino]-pyrimidin-4-ylamino}-3-methoxy-benzamide]
IC50 [1, 3]: > 10000 nM
IC50 [2, 4]: < 100 nM

SMILES: CCN1C(=O)[C@H](N)CCc2c1ccc(Nc1ncc(Cl)c(N[C@H]3[C@@H](C(N)=O)[C@@H]4C=C[C@H]3C4)n1)c2OC (single isomer, unassigned) [Example 1331]
IC50 [1, 3]: > 10000 nM
IC50 [2, 4]: < 100 nM

SMILES: COCCN1CCCC(C)(C)c2ccc(Nc3ncc(Cl)c(N[C@H]4[C@@H](C(N)=O)[C@@H]5C=C[C@H]4C5)n3)cc21 [Example 1600, (1S,2S,3R,4R)-3-{5-Chloro-2-[1-(2-methoxy-ethyl)-5,5-dimethyl-2,3,4,5-tetrahydro-1H-benzo[b]azepin-8-ylamino]-pyrimidin-4-ylamino}-bicyclo[2.2.1]hept-5-ene-2-carboxylic acid amide]
IC50 [1, 7]: 100 to 1000 nM
IC50 [2, 8]: < 100 nM

SMILES: NC(=O)C1C2C=CC(C2)C1Nc1nc(Nc2cccc3c2OCCCC3)ncc1Cl (stereo not drawn) [Example 861, (2-exo-3-exo)-3-[5-Chloro-2-(2,3,4,5-tetrahydro-benzo[b]oxepin-9-ylamino)-pyrimidin-4-ylamino]-bicyclo[2.2.1]hept-5-ene-2-carboxylic acid amide]
IC50 [1, 9]: > 10000 nM
IC50 [2, 10]: < 100 nM

SMILES: CC(C)[C@H](Nc1nc(Nc2ccc3c(c2)CC(=O)N(C)CC3)ncc1Cl)C(N)=O [Example 1823, (S)-2-[5-Chloro-2-(3-methyl-4-oxo-2,3,4,5-tetrahydro-1H-benzo[d]azepin-7-ylamino)-pyrimidin-4-ylamino]-3-methyl-butyramide]
IC50 [1, 7]: > 10000 nM
IC50 [2, 8]: 1000 to 10000 nM

SMILES: COc1cc2c(cc1Nc1ncc(Cl)c(Nc3ccc(N4CCOCC4)cc3OC)n1)CCN(C(=O)CN(C)C)CC2 [Example 1121, 1-{7-[5-Chloro-4-(2-methoxy-4-morpholin-4-yl-phenylamino)-pyrimidin-2-ylamino]-8-methoxy-1,2,4,5-tetrahydro-benzo[d]azepin-3-yl}-2-dimethylamino-ethanone]
IC50 [1, 3]: > 10000 nM
IC50 [2, 4]: < 100 nM

SMILES: CC(=O)N[C@@H]1CCCC[C@H]1Nc1nc(Nc2ccc3c(c2)C(C)(C)CCC(=O)N3)ncc1Cl [Example 395, N-{(1R,2R)-2-[5-Chloro-2-(5,5-dimethyl-2-oxo-2,3,4,5-tetrahydro-1H-benzo[b]azepin-7-ylamino)-pyrimidin-4-ylamino]-cyclohexyl}-acetamide]
IC50 [1, 5]: 100 to 1000 nM
IC50 [2, 6]: < 100 nM

SMILES: CCN1C2CCC1c1c(ccc(Nc3ncc(Cl)c(Nc4ccccc4C(=O)NC)n3)c1Cl)C2 (stereo not drawn) [Example 73, 2-[5-Chloro-2-(3-chloro-12-ethyl-12-aza-tricyclo[7.2.1.0*2,7*]dodeca-2(7),3,5-trien-4-ylamino)-pyrimidin-4-ylamino]-N-methyl-benzamide]
IC50 [1, 5]: 100 to 1000 nM
IC50 [2, 6]: < 100 nM

SMILES: COc1c(Nc2ncc(Cl)c(Nc3ccccc3S(=O)(=O)N(C)C)n2)ccc2c1CCC(N1CCN(C)CC1)CC2 (stereo not drawn) [Example 911, 2-{5-Chloro-2-[1-methoxy-7-(4-methyl-piperazin-1-yl)-6,7,8,9-tetrahydro-5H-benzocyclohepten-2-ylamino]-pyrimidin-4-ylamino}-N,N-dimethyl-benzenesulfonamide]
IC50 [1, 9]: 1000 to 10000 nM
IC50 [2, 10]: < 100 nM

SMILES: Cc1noc(-c2cccc(F)c2Nc2nc(Nc3ccc4c(c3)CCOC(=O)N4C)ncc2Cl)n1 [Example 1785, 2-{5-Chloro-4-[2-fluoro-6-(3-methyl-[1,2,4]oxadiazol-5-yl)-phenylamino]-pyrimidin-2-ylamino}-5-methyl-8,9-dihydro-5H-7-oxa-5-aza-benzocyclohepten-6-one]
IC50 [1, 7]: 100 to 1000 nM
IC50 [2, 8]: 1000 to 10000 nM

SMILES: COCCN1CCc2ccc(Nc3ncc(Cl)c(N[C@H]4CCC[C@H]4NS(C)(=O)=O)n3)cc2CC1 [Example 1501, N-((1R,2S)-2-{5-Chloro-2-[3-(2-methoxy-ethyl)-2,3,4,5-tetrahydro-1H-benzo[d]azepin-7-ylamino]-pyrimidin-4-ylamino}-cyclopentyl)-methanesulfonamide]
IC50 [1, 7]: 1000 to 10000 nM
IC50 [2, 8]: 100 to 1000 nM

SMILES: CS(=O)(=O)N[C@@H]1CCCC[C@H]1Nc1nc(Nc2ccc3c(c2)CNCCS3)ncc1Cl [Example 519, N-{(1R,2R)-2-[5-Chloro-2-(6,7,8,9-tetrahydro-5-thia-8-aza-benzocyclohepten-2-ylamino)-pyrimidin-4-ylamino]-cyclohexyl}-methanesulfonamide]
IC50 [1, 9]: 1000 to 10000 nM
IC50 [2, 10]: < 100 nM

SMILES: CCN1C(=O)C(NC(=O)COC)CCc2c1ccc(Nc1ncc(Cl)c(Nc3ccccc3S(=O)(=O)N(C)C)n1)c2OC (stereo not drawn) [Example 1352, N-{7-[5-Chloro-4-(2-dimethylsulfamoyl-phenylamino)-pyrimidin-2-ylamino]-1-ethyl-6-methoxy-2-oxo-2,3,4,5-tetrahydro-1H-benzo[b]azepin-3-yl}-2-methoxy-acetamide]
IC50 [1, 3]: > 10000 nM
IC50 [2, 4]: < 100 nM

SMILES: COc1cc2c(cc1Nc1ncc(Cl)c(N[C@H]3[C@@H](C(N)=O)[C@@H]4C=C[C@H]3C4)n1)CCN(C(=O)C1COCCO1)CC2 (stereo partly drawn) [Example 635, (1S,2S,3R,4R)-3-{5-Chloro-2-[3-([1,4]dioxane-2-carbonyl)-8-methoxy-2,3,4,5-tetrahydro-1H-benzo[d]azepin-7-ylamino]-pyrimidin-4-ylamino}-bicyclo[2.2.1]hept-5-ene-2-carboxylic acid amide]
IC50 [1, 9]: > 10000 nM
IC50 [2, 10]: < 100 nM

SMILES: COCCN1CCc2ccc(Nc3ncc(Cl)c(N[C@H]4CC[C@@H](NS(C)(=O)=O)CC4)n3)cc2CC1 [Example 1381, cis-N-(4-{5-Chloro-2-[3-(2-methoxy-ethyl)-2,3,4,5-tetrahydro-1H-benzo[d]azepin-7-ylamino]-pyrimidin-4-ylamino}-cyclohexyl)-methanesulfonamide]
IC50 [1, 3]: 1000 to 10000 nM
IC50 [2, 4]: 100 to 1000 nM

SMILES: CCN1C(=O)CN(C(C)=O)Cc2ccc(Nc3ncc(Cl)c(Nc4c(C)csc4C(=O)NC)n3)cc21 [Example 1852, 3-[2-(4-Acetyl-1-ethyl-2-oxo-2,3,4,5-tetrahydro-1H-benzo[e][1,4]diazepin-8-ylamino)-5-chloro-pyrimidin-4-ylamino]-4-methyl-thiophene-2-carboxylic acid-methylamide]
IC50 [1, 7]: < 100 nM
IC50 [2, 8]: < 100 nM

Next, values leading:

IC50 [1, 5]: < 100 nM
IC50 [2, 6]: < 100 nM
SMILES: CCNC(=O)c1ccccc1Nc1nc(Nc2ccc3c(c2)CCN(CCOC)CC3)ncc1Cl [Example 343, 2-{5-Chloro-2-[3-(2-methoxy-ethyl)-2,3,4,5-tetrahydro-1H-benzo[d]azepin-7-ylamino]-pyrimidin-4-ylamino}-N-ethyl-benzamide]

IC50 [1, 7]: < 100 nM
IC50 [2, 8]: 1000 to 10000 nM
SMILES: CNC(=O)c1scc(C)c1Nc1nc(Nc2ccc3c(c2)CCOC(=O)N3C)ncc1Cl [Example 1759, 3-[5-Chloro-2-(5-methyl-6-oxo-5,6,8,9-tetrahydro-7-oxa-5-aza-benzocyclohepten-2-ylamino)-pyrimidin-4-ylamino]-4-methyl-thiophene-2-carboxylic acid methylamide]

IC50 [1, 5]: < 100 nM
IC50 [2, 6]: < 100 nM
SMILES: C#CCN1CCc2ccc(Nc3ncc(Cl)c(Nc4ccccc4C(=O)NC)n3)cc2CC1 [Example 322, 2-[5-Chloro-2-(3-prop-2-ynyl-2,3,4,5-tetrahydro-1H-benzo[d]azepin-7-ylamino)-pyrimidin-4-ylamino]-N-methyl-benzamide]

IC50 [1, 7]: 100 to 1000 nM
IC50 [2, 8]: < 100 nM
SMILES: CCN1C(=O)CCC(C)(C)c2ccc(Nc3ncc(Cl)c(Nc4ccccc4OCC#N)n3)cc21 [Example 1580, {2-[5-Chloro-2-(1-ethyl-5,5-dimethyl-2-oxo-2,3,4,5-tetrahydro-1H-benzo[b]azepin-8-ylamino)-pyrimidin-4-ylamino]-phenoxy}-acetonitrile]

IC50 [1, 5]: < 100 nM
IC50 [2, 6]: < 100 nM
SMILES: C#CCN1CCN(C)c2cc(Nc3ncc(Cl)c(Nc4ccccc4C(=O)N(C)CC#C)n3)ccc2C1 [Example 488, 2-[5-Chloro-2-(1-methyl-4-prop-2-ynyl-2,3,4,5-tetrahydro-1H-benzo[e][1,4]diazepin-8-ylamino)-pyrimidin-4-ylamino]-N-methyl-N-prop-2-ynyl-benzamide]

IC50 [1, 5]: < 100 nM
IC50 [2, 6]: < 100 nM
SMILES: CNC(=O)c1ccccc1Nc1nc(Nc2ccc3c(c2)CCOCC3)ncc1Cl [Example 51, 2-[5-Chloro-2-(5,6,8,9-tetrahydro-7-oxa-benzocyclohepten-2-ylamino)-pyrimidin-4-ylamino]-N-methyl-benzamide]

IC50 [1, 5]: > 10000 nM
IC50 [2, 6]: > 10000 nM
SMILES: CNC(=O)c1ccccc1Nc1nc(Nc2cccc3c2C(=O)NC(C)CN3C(=O)C(F)(F)F)ncc1Cl (stereo not drawn) [Example 229, 2-{5-Chloro-2-[3-methyl-5-oxo-1-(2,2,2-trifluoro-acetyl)-2,3,4,5-tetrahydro-1H-benzo[e][1,4]diazepin-6-ylamino]-pyrimidin-4-ylamino}-N-methyl-benzamide]

IC50 [1, 3]: 100 to 1000 nM
IC50 [2, 4]: 1000 to 10000 nM
SMILES: COCCN1CCc2ccc(Nc3ncc(Cl)c(Nc4c(OC)cccc4C(=O)NCC#N)n3)cc2CC1 [Example 1063, 2-{5-Chloro-2-[3-(2-methoxy-ethyl)-2,3,4,5-tetrahydro-1H-benzo[d]azepin-7-ylamino]-pyrimidin-4-ylamino}-N-cyanomethyl-3-methoxy-benzamide]
